# Assay results from patent US9493396B2, “Substituted naphthalene compounds as calcium sensing receptor modulators” (LUPIN ATLANTIS HOLDINGS SA, priority 2013, dated 2016).
# Structures can show the parent of a compound that is named as a salt.
# Target: T1, Calcium sensing receptor (hCaSR) (Homo sapiens, UniProt P41180)
# T1 construct: expressed in transfected cells; host or cells: HEK293 (stably transfected)
# T1 sequence (P41180 20-1078): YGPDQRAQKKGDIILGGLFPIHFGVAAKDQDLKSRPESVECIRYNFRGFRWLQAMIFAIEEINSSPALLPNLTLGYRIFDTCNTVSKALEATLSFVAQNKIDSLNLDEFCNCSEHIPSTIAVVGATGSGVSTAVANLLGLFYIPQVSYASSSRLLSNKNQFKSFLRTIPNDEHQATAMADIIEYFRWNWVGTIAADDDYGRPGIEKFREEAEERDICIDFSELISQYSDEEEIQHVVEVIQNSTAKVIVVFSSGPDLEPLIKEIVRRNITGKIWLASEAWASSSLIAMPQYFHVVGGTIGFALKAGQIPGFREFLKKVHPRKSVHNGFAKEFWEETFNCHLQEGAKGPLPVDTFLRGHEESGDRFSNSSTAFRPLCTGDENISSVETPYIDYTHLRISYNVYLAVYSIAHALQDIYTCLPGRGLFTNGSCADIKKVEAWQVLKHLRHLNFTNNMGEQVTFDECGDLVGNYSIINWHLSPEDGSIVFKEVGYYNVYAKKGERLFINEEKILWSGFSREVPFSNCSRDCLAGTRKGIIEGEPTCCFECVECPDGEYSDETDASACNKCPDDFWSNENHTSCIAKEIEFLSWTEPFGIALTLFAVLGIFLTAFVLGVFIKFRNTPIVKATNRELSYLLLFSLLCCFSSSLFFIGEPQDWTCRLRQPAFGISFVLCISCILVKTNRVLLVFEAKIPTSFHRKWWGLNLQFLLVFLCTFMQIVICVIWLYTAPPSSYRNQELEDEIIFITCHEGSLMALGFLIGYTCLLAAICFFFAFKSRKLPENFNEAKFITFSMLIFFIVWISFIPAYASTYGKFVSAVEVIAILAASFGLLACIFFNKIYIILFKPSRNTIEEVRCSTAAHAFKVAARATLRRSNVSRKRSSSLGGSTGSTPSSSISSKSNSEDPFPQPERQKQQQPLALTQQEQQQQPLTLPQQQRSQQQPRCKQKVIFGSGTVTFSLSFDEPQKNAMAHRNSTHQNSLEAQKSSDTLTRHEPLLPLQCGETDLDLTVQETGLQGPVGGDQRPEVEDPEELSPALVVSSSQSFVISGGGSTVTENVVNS
# Experiment: In-vitro assay of calcimimetics through modulation of calcium sensing receptor (intracellular calcium increase, FLIPR)
# Assay type: cell-based
# Conditions: stably transfected HEK293 cells expressing hCaSR; Fluo4NW dye; 0.3 mM CaCl2; 8-point assay; read-out: EC50 in range
# In short: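 Stably transfected HEK293 cells expressing hCaSR, loaded 30 min with Fluo4NW dye. Intracellular calcium rise measured on FLIPR in 20 mM HEPES buffer with 0.3 mM CaCl2. EC50 derived from 8-point concentration series.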
row,SMILES,EC50 [nM]
1,"Cc1ccc(-c2cc(C(C)N[C@H](C)c3cccc(Cl)c3)cc3ccccc23)cc1C(=O)O (stereo partly drawn) [Example 117, 5-(3-(1-(((R)-1-(3-Chlorophenyl)ethyl)amino)ethyl)naphthalen-1-yl)-2-methylbenzoic acid hydrochloride]",50 to 400
2,"Cc1ccc(-c2cc(CN[C@H](C)c3cccc(Cl)c3)cc3ccccc23)cc1C(=O)O [Example 94, (R)-5-(3-(((1-(3-Chlorophenyl)ethyl)amino)methyl)naphthalen-1-yl)-2-methylbenzoic acid hydrochloride]",50 to 400
3,"CCOc1cccc([C@@H](C)NC(C)c2cc(-c3ccc(F)c(C(=O)O)c3)c3ccccc3c2)c1 (stereo partly drawn) [Example 126, 5-(3-(1-(((R)-1-(3-Ethoxyphenyl)ethyl)amino)ethyl)naphthalen-1-yl)-2-fluorobenzoic acid hydrochloride]",< 20
4,"COc1ccc(-c2cc(C(C)N[C@H](C)c3cccc(Cl)c3)cc3ccccc23)cc1F (stereo partly drawn) [Example 8, (1R)-1-(3-Chlorophenyl)-N-(1-(4-(3-fluoro-4-methoxyphenyl)naphthalen-2-yl)ethyl)ethanamine hydrochloride]",< 20
5,"COc1cccc([C@@H](C)NCc2cc(-c3cccc(C(=O)O)c3)c3ccccc3c2)c1 [Example 108, (R)-3-(3-(((1-(3-Methoxyphenyl)ethyl)amino)methyl)naphthalen-1-yl)benzoic acid hydrochloride]",< 20
6,"CCOc1cccc([C@@H](C)NC(CC)c2cc(-c3ccc(F)c(CCC(=O)O)c3)c3ccccc3c2)c1 (stereo partly drawn) [Example 141, 3-(5-(3-(1-(((R)-1-(3-Ethoxyphenyl)ethyl)amino)propyl)naphthalen-1-yl)-2-fluorophenyl) propanoic acid hydrochloride]",20 to 50
7,"COc1cccc([C@@H](C)NC(C)c2cc(-c3ccc(Cl)c(C(=O)O)c3)c3ccccc3c2)c1 (stereo partly drawn) [Example 133, 2-Chloro-5-(3-(1-(((R)-1-(3-methoxyphenyl)ethyl)amino)ethyl)naphthalen-1-yl)benzoic acid hydrochloride]",< 20
8,"CC(N[C@H](C)c1cccc(Cl)c1)c1cc(-c2ccc(F)c(C(=O)O)c2)c2ccccc2c1 (stereo partly drawn) [Example 127, 5-(3-(1-(((R)-1-(3-Chlorophenyl)ethyl)amino)ethyl)naphthalen-1-yl)-2-fluorobenzoic acid hydrochloride]",50 to 400
9,"C[C@@H](NCc1cc(-c2ccc(C(F)(F)F)cc2)c2ccccc2c1)c1cccc2ccccc12 [Example 1, (R)-1-(Naphthalen-1-yl)-N-((4-(4-(trifluoromethyl)phenyl)naphthalen-2-yl)methyl)ethanamine hydrochloride]",< 20
10,"COc1cc(F)cc(C(C)NC(C)c2cc(-c3ccc(C(F)(F)F)cc3)c3ccccc3c2)c1 (single isomer, unassigned) [Example 163a, 1-(3-Fluoro-5-methoxyphenyl)-N-(1-(4-(4-(trifluoromethyl)phenyl)naphthalen-2-yl)ethyl)ethanamine hydrochloride]",50 to 400
11,"COc1cccc([C@@H](C)NC(C)c2cc(-c3cc(F)cc(CCC(=O)O)c3)c3cc(F)ccc3c2)c1 (stereo partly drawn) [Example 147, 3-(3-Fluoro-5-(7-fluoro-3-(1-(((R)-1-(3-methoxyphenyl)ethyl)amino)ethyl)naphthalen-1-yl)phenyl)propanoic acid hydrochloride]",50 to 400
12,"COCCOc1cccc([C@@H](C)NCc2cc(-c3ccc(F)c(C(=O)O)c3)c3ccccc3c2)c1 [Example 113, (R)-2-Fluoro-5-(3-(((1-(3-(2-methoxyethoxy)phenyl)ethyl)amino)methyl)naphthalen-1-yl) benzoic acid hydrochloride]",50 to 400
13,"COc1cc(F)cc(C(C)NC(C)c2cc(-c3ccc(C(F)(F)F)cc3)c3ccccc3c2)c1 (single isomer, unassigned) [Example 163b, 1-(3-Fluoro-5-methoxyphenyl)-N-(1-(4-(4-(trifluoromethyl)phenyl)naphthalen-2-yl)ethyl)ethanamine hydrochloride]",20 to 50
14,"CC(N[C@H](C)c1cccc2ccccc12)c1cc(-c2ccc(C(F)(F)F)cc2)c2ccccc2c1 (single isomer, unassigned) [Example 9a, hydrochloride]",20 to 50
15,"CC(N[C@H](C)c1cccc(Cl)c1)c1cc(-c2ccc(OC(F)F)cc2)c2ccccc2c1 (stereo partly drawn) [Example 22, (1R)-1-(3-Chlorophenyl)-N-1-(4-(4-(difluoromethoxy)phenyl)naphthalen-2-yl)ethyl)ethanamine hydrochloride]",< 20
16,"CCOc1cccc([C@@H](C)NCc2cc(-c3ccc(Cl)c(C(=O)O)c3)c3ccccc3c2)c1 [Example 100, (R)-2-Chloro-5-(3-(((1-(3-ethoxyphenyl)ethyl)amino)methyl)naphthalen-1-yl)benzoic acid hydrochloride]",20 to 50
17,"COc1cccc([C@@H](C)NC(C)c2cc(-c3ccc(C)c(CCC(=O)O)c3)c3ccccc3c2)c1 (stereo partly drawn) [Example 137, 3-(5-(3-(1-(((R)-1-(3-Methoxyphenyl)ethyl)amino)ethyl)naphthalen-1-yl)-2-methylphenyl) propanoic acid hydrochloride]",< 20
18,"CCC(N[C@H](C)c1cccc(OC)c1)c1cc(-c2ccc(C(F)(F)F)cc2)c2ccccc2c1 (single isomer, unassigned) [Example 18a, hydrochloride]",< 20
19,"CCCOc1cccc([C@@H](C)NCc2cc(-c3ccc(C)c(C(=O)O)c3)c3ccccc3c2)c1 [Example 92, (R)-2-Methyl-5-(3-(((1-(3-propoxyphenyl)ethyl)amino)methyl)naphthalen-1-yl)benzoic acid hydrochloride]",50 to 400
20,"CCOc1cccc([C@@H](C)NC(C)c2cc(-c3ccc(C(F)(F)F)cc3)c3ccccc3c2)c1 (stereo partly drawn) [Example 12, (1R)-1-(3-Ethoxyphenyl)-N-(1-(4-(4-(trifluoromethyl)phenyl)naphthalen-2-yl)ethyl)ethanamine hydrochloride]",< 20
21,"COc1cccc([C@@H](C)NCc2cc(-c3ccc(C(C)(C)C(=O)O)cc3)c3ccccc3c2)c1 [Example 111, (R)-2-(4-(3-(((1-(3-Methoxyphenyl)ethyl)amino)methyl)naphthalen-1-yl)phenyl)-2-methylpropanoic acid hydrochloride]",50 to 400
22,"COc1cccc([C@@H](C)NC(C)c2cc(-c3ccc(C(C)(C)C(=O)O)cc3)c3ccccc3c2)c1 (stereo partly drawn) [Example 138, 2-(4-(3-(1-(((R)-1-(3-Methoxyphenyl)ethyl)amino)ethyl)naphthalen-1-yl)phenyl)-2-methylpropanoic acid hydrochloride]",50 to 400
23,"COc1cccc([C@@H](C)NCc2cc(-c3ccc(OC)c(C(=O)O)c3)c3ccccc3c2)c1 [Example 104, (R)-2-Methoxy-5-(3-(((1-(3-methoxyphenyl)ethyl)amino)methyl)naphthalen-1-yl)benzoic acid hydrochloride]",50 to 400
24,"CCC(N[C@H](C)c1cccc(OC)c1)c1cc(-c2ccc(F)c(CCC(=O)O)c2)c2ccccc2c1 (stereo partly drawn) [Example 140, 3-(2-Fluoro-5-(3-(1-(((R)-1-(3-methoxyphenyl)ethyl)amino)propyl)naphthalen-1-yl)phenyl)propanoic acid hydrochloride]",50 to 400
25,"COc1cc([C@@H](C)NC(C)c2cc(-c3ccc(C)c(C(=O)O)c3)c3ccccc3c2)ccc1F (stereo partly drawn) [Example 115, 5-(3-(1-(((R)-1-(4-Fluoro-3-methoxyphenyl)ethyl)amino)ethyl)naphthalen-1-yl)-2-methylbenzoic acid hydrochloride]",50 to 400
26,"COc1cccc([C@@H](C)NCc2cc(-c3ccc(F)c(CCC(=O)O)c3)c3ccccc3c2)c1 [Example 110, hydrochloride]",< 20
27,"Cc1ccc(-c2cc(CN[C@H](C)c3cccc(OCC(F)F)c3)cc3ccccc23)cc1C(=O)O [Example 95, (R)-5-(3-(((1-(3-(2,2-Difluoroethoxy)phenyl)ethyl)amino)methyl)naphthalen-1-yl)-2-methylbenzoic acid hydrochloride]",50 to 400
28,"C[C@@H](NCc1cc(-c2ccc(C(=O)O)cc2)c2ccccc2c1)c1cccc2ccccc12 [Example 106, (R)-4-(3-(((1-(Naphthalen-1-yl)ethyl)amino)methyl)naphthalen-1-yl)benzoic acid hydrochloride]",50 to 400
